According to patent publication US20100255020A1, “METHOD FOR INDUCING CYTOTOXIC T-CELLS, CYTOTOXIC T-CELL INDUCERS, AND PHARMACEUTICAL COMPOSITIONS AND VACCINES EMPLOYING THEM” (NEC CORPORATION, priority 2007, published 2010):
Several values for one entry are separate records, joined by “and”; a condition that tells them apart may be missing. Identical values can stand only once. Where no end group is shown, it is not given here.

Assays:
HLA-A*0206 molecule = target: T1, HLA-A*0206 molecule (Homo sapiens, UniProt P04439, D140Y/D185E/D98H/E176V/E277Q/F33Y/G131W/G231S/I119V/I121R/I166T/I218V/L300P/L318F/N151K/N90K/P208A/P217A/Q86G/Q94H/R138H/R169H/T345S); assay: Peptide binding to HLA-A*0206 molecule on RA2.6 cells (flow cytometry, Kd); details: HLA-A*0206, RA2.6 cells; read-out: Binding assay data (−log Kd) (converted)
T1 construct: expressed in transfected cells; host or cells: RA2.6 (mouse TAP-deficient RMAS cells transfected with pMKITneo bearing HLA-A*0206 cDNA)
Description: The ability of a peptide to bind to an HLA-A*0206 molecule, which is a product of the HLA-A*0206 gene, was measured using RA2.6 cells (cell line newly generated in Kochi University), wherein cDNA of the HLA-A*0206 gene is introduced into RMAS, which is a mouse TAP (transporter associated with antigen processing)-deficient cell line.
RA2.6 cells were first cultured overnight at 26° C., during this incubation HLA-A*0206 molecules devoid of bound peptide accumulated. Serial dilutions of peptide were added to these cells and peptide binding was carried out at room temperature for 30 minutes.
Subsequently, culture was carried out at 37° C. for 3.5 hours, during this incubation empty HLA-A*0206 molecules to which no peptide was bound were denatured, and the tertiary structure was lost.
The cells were stained by adding thereto fluorescently-labeled monoclonal antibody BB7.2, which specifically recognizes the peptide-bound HLA-A*0206 molecule, and incubating on ice for 20 minutes.
Subsequently, the amount of fluorescence per cell was measured using a flow cytometer, and a dissociation constant Kd value was calculated by a method published in the literature (Udaka et al., Immunogenetics, 51, 816-828, 2000).

malignant tumors = assay: Peptide immunotherapy of patients, tumor response by RECIST criteria (CT/MRI); assay type: in vivo, human; parameters: key to RECIST, single lung metastasis / RECIST, total sum of longest diameters of 10 metastatic target lesions / RECIST, pubic bone metastatic tumor / RECIST determination 3 months after starting W10 peptide therapy: CR: all target lesions have disappeared; PR: the sum of the longest diameters of the target lesions decreases by at least 30%; PD: the sum of the longest diameters of the target lesions increases by at least 20%; SD: the change of tumr size is between PR or PD
Description: Among 18 patients, 3 people are illustrated in the style of case reports. […] The mixture was prepared immediately prior to administration. When W10 peptide was administered without petussis vaccine in the safety test, W10 peptide solution was divided into 4 equal portions and injected intradermally at 4 locations in the same manner. A method to measure the diameter of a tumor and a method to analyze peptide-specific T-cells using an HLA-A24 tetramer by flow cytometry are described below.
The international RECIST criteria referred to here is an evaluation standard described in Theresse, P. et al., J Natl Cancer Inst. 2000, 92, 205-216. When there is confirmation by helical CT or MRI that all target lesions have disappeared this is defined as CR (complete response), when the sum of the longest diameters of the target lesions decreases by at least 30% this is defined as PR (partial response), when the sum of the longest diameters of the target lesions increases by at least 20% this is defined as PD (progressive disease), and when the change of tumr size is between PR or PD this is defined as SD (stable disease). However, regardless of the presence or absence of a change in the target lesions, when even one new lesion appears this is defined as PD.
Based on the above-mentioned international RECIST criteria, which is used for evaluation of anticancer drugs, all measurable tumors were selected as target tumors, and change in the SLD of the tumors over the course of the therapy was monitored. In addition, number of all the tumors was counted, regardless of the size of a tumor, every time diagnostic imaging was carried out in order to lookout for new lesions. Diagnostic imaging was carried out in principle once a month by helical CT or MRI. If even one new metastasis appeared, regardless of the change in the primary lesion, it was judged as PD.
Clinical responses were evaluated according to the aforementioned international RECIST criteria for 18 patients who had been treated by immunotherapy using W10+Wc for at least 3 months and one week. Eight cased out of 18 patients were judged as SD, 10 cased were PD. […] In reports on peptide immunotherapy so far, the tumor control rate was limited to a few % up to ten or so % worldwide (Reference Documents 1 to 4). Compared with these already reported cases, this is a good reaction.

[1] = system: HLA-A*2402 positive cell lines that express WT1 naturally (KAZZ, KCL22, KH88, MEG01); assay: Reactivity of WT1 peptide-specific cell lines toward tumor cells (IFN-γ ELISPOT); assay type: cell-based, human; details: cell lines established from HLA-A*2402 positive patients, FIG. 5
Text: Reactions of cell lines established from different patients are arranged in a bar graph.

[2] = system: prostate-specific antigen (PSA); assay: Prostate tumor marker PSA during W10 peptide immunotherapy; assay type: in vivo, human
Description: After the gradual increase the dose was fixed to 3 mg of W10 peptide+Wc and immunotherapy was continued. […] The day when 1 mg of W10 peptide on its own was first administered was presented as day 0. Arrows with dotted line indicates the period when 3 mg of W10 without Wc was injected for safety test (W10). The period where Wc was further added to W10 is also indicated with arrows with solid line (W10+Wc). […] Therefore, osteolytic lesions were measured as the size of tumors. […] Around May 2008, PSA gradually started to increase again, and pain started in the right femur. From the end of July 2008, a taxotere+Predonin therapy was started. W10+Wc immunotherapy was continued along with chemotherapy.
Immunotherapy was started with 3 mg W10 peptide while monitoring safety, then dose escalation was put forward with W10 peptide 1 mg+Wc, followed by 3 mg of W10 peptide+Wc. Eventually, the dose was fixed at this level and weekly immunization was continued. […] The day the immunization was started with 3 mg of W10 without Wc was set as day 0. […] For about half a year, PSA was stable at less than 0.1 (FIG. 14 a). […] When the immunotherapy was resumed, PSA decreased. After this incident, PSA started to show gradual increase. […] The size of a pubic bone metastatic tumor has been maintained within SD for 37 weeks on the RECIST standard so far (FIG. 14 b). […]

## ALLPAVPSL [W10]
HLA-A*0206 molecule
  Kd: 18.2 nM
Malignant tumors; one line per patient case, W10+Wc immunotherapy, weekly intradermal, listed as W10 peptide
  Duration of tumor control (weeks): 37 weeks and 30 weeks and 32 weeks and 10 weeks and 4 weeks and 0 weeks (6×) and 6 weeks and 17 weeks and 19 weeks and 12 weeks and 33 weeks and 38 weeks
Malignant tumors; one line per patient case, W10+Wc immunotherapy, listed as W10 peptide
  RECIST determination 3 months after starting W10 peptide therapy: SD (7×) and SD > PD and PD (the sum of the longest diameters of the target lesions increases by at least 20%) (10×)
Malignant tumors; patient KB07-003, maintained for 37 weeks
  RECIST, pubic bone metastatic tumor: SD
Malignant tumors; patient KB07-003, since W10 therapy started
  New metastatic tumors: no new metastatic tumors have been found
Malignant tumors; patient KB07-005, right femur
  Growth of metastatic tumor in the bone (SLD): almost stopped
Malignant tumors; patient KB07-005, throughout the period
  New distant metastasis: no new distant metastasis was observed
Malignant tumors; patient KB07-006
  Growth of tumors expressing WT1: suppressed
Malignant tumors; patient KB07-006, 13 months after starting W10 peptide
  Appearance of new metastatic lesion: no appearance of a new metastatic lesion
Malignant tumors; patient KB07-006, CT on the 37th week
  RECIST, total sum of longest diameters of 10 metastatic target lesions: PD (the sum of the longest diameters of the target lesions increases by at least 20%)
Malignant tumors; patient KB07-006, adenoid cystic carcinoma, up to 32 weeks
  RECIST, total sum of longest diameters of 10 metastatic target lesions: SD
[1]
  Reactivity of peptide-dependent cell line toward WT1-expressing cell lines compared with C1R-A24: tends to be higher although differences are small
[2]; patient KB07-003, prostate cancer, stable for about half a year
  PSA: less than 0.1
[2]; patient KB07-005, prostate cancer
  PSA after starting immunotherapy: around 0.04
